Source: publication PMC5131395, “Asperterpenes A and B, two unprecedented meroterpenoids from Aspergillus terreus with BACE1 inhibitory activities” (Chemical Science, 2016)

Target: BACE1 (Homo sapiens, UniProt P56817)
Experiment: cell-based FRET peptide cleavage assay, HEK-293 cells

BACE1, sequence (P56817 46-501): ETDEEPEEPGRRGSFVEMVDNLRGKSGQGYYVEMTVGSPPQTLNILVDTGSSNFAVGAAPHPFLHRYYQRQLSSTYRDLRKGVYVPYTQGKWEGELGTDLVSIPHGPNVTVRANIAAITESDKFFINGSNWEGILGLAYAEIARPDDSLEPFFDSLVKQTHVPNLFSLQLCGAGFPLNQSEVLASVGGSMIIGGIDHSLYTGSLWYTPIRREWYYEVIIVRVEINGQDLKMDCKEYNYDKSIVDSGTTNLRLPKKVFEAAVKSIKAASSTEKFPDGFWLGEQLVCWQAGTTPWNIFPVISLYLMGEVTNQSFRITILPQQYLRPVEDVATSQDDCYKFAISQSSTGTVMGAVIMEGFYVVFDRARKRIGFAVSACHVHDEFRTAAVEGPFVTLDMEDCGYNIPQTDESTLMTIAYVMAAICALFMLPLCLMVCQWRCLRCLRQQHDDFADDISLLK

Structure (SMILES)	IC50
COC(=O)C1=C(C)[C@@]2(C)C[C@H]3[C@@]4(C)CCC(=O)C(C)(C)[C@@H]4CC[C@]3(C)[C@@](C)(C1=O)C2=O [compound 1, asperterpene A]	78 nM
COC(=O)CC[C@@]1(C)[C@H](C(C)(C)O)CC[C@@]2(C)[C@H]1C[C@@]1(C)C(=O)[C@]2(C)C(=O)C(C(=O)OC)=C1C [compound 2, asperterpene B]	59 nM
